Source: patent US20240368120A1 (Terns Pharmaceuticals, Inc., priority 2023, published 2024)
Like-named read-outs stand apart in the source and are kept apart here.

Tests used:
[1] = Metabolic stability in rat hepatocytes; assay type: in vitro ADME; conditions: cryopreserved hepatocytes, 1 μM, 1×10^6 cells/mL, 0-240 min; for half-life at 1 μM: read-out: Rat t1/2
Protocol: (§1) Test compounds were incubated in rat and human hepatocytes and stability was assessed from the substrate […] approach. Test compounds were dissolved in dimethyl sulfoxide (DMSO) to create a 10 mM Stock, and then further diluted to create a 1000× Working Stock of 1 mM with DMSO in 96-well plates for test compounds and the positive control (midazolam). Vials containing cryopreserved hepatocytes were removed from the liquid nitrogen tank and immediately immersed in a 37° C. water bath. The vials were shaken gently until the contents had thawed and were then immediately emptied into 48 mL of pre-warmed HT Medium in a 50 mL conical tube. Cells remaining in the vial were resuspended with 1.0 mL of pre-warmed HT Medium and added to the conical tube. The tube was capped and then gently inverted several times to resuspend the hepatocytes. The cell suspension was centrifuged at 50×g at room temperature for 5 minutes and the supernatant discarded. The cell pellet was loosened by gently swirling the centrifuge tube and was re-suspended in 4 mL of warm Dulbecco's Modified Eagle medium (DMEM). Cell density was determined by a cell counter by Nexcelom, and DMEM medium was added to obtain a target density of 1×10^6 cells/mL. The assay was carried out in 96-well microtiter plates. Test Compounds were incubated at 1 μM with 1×10^6 cells/mL hepatocytes in DMEM for 0, 30, 60, 120 and 240 minutes. The incubation was carried out with gentle shaking at 37° C. under a humid atmosphere of 95% air/5% CO2. The volume of the incubation mixture was 37 μL with a final 0.1% DMSO. At each of the time points, the incubation was stopped by adding 150 μL quenching solution (100% acetonitrile, 0.1% formic acid containing bucetin as an internal standard for positive ESI mode). Subsequently, the mixtures were vortexed for 20 min and centrifuged at 4,000 RPM at 10° C. The supernatant (80 μL) was transferred to a clean 96-well plate and analyzed by LC-MS/MS. Midazolam at 1 μM with a final 0.1% DMSO was included as a positive control to verify assay performance. The percent parent remaining, intrinsic and predicted hepatic clearance and t1/2 were calculated. All samples were analyzed by LC-MS/MS using an AB Sciex API 4000 instrument, coupled to a Shimadzu LC-20AD LC Pump system. Separation was achieved using a Waters Atlantis T3 dC18 reverse phase HPLC column (20 mm×2.1 mm) at a flow rate of 0.5 mL/min. The mobile phase consisted of 0.1% formic acid in water (solvent A) and 0.1% formic acid in 100% acetonitrile (solvent B). Elution conditions are detailed below.
(§2) The ion optics of each test compound were optimized for their declustering potential (DP), […] (CE), collision-cell exit potential (CXP) and used in a selected ion monitoring experiment in the positive ion mode. The peak area ratio of each test compound to internal standard was then evaluated for stability. The extent of metabolism was calculated based on the disappearance of the test compound, compared to its initial concentration. The initial rates of clearance of the test compound were calculated using the linear regression plot of semi-log % remaining of the compound versus time. The elimination rate constant (k) of the linear regression plot was then used to determine t1/2 and the intrinsic clearance (CLint) using the following formula, where Chepatocyte (million cells/mL) is the cell density of the incubation:
(§3) The predicted hepatic clearance (CLhep) was calculated using the well stirred method with the following formula with CLint (in vivo) normalized based on liver weight: […]
(§4) The relevant physiological parameters of liver weight, blood flow, and hepatocellularity for various species are listed below: […]

rat hepatocytes = experiment: Metabolic stability in rat hepatocytes; assay type: in vitro ADME; conditions: predicted hepatic clearance, well stirred method
Protocol: as §1, §2, §3, §4

[2] = Metabolic stability in human hepatocytes; assay type: in vitro ADME; conditions: cryopreserved hepatocytes, 1 μM, 1×10^6 cells/mL, 0-240 min; for half-life at 1 μM: read-out: Human t1/2
Protocol: as §1, §2, §3, §4

human hepatocytes = experiment: Metabolic stability in human hepatocytes; assay type: in vitro ADME; conditions: predicted hepatic clearance, well stirred method
Protocol: as §1, §2, §3, §4

[3] = Rat pharmacokinetics, oral dosing; assay type: in vivo, Sprague-Dawley rats; conditions: male, Sprague-Dawley, plasma; for half-life: read-out: Rat T1/2

Row | CLint scaled at 1 μM [1] [mL/min/kg] | half-life at 1 μM [1] [h] | Rat Clhep predicted (rat hepatocytes) [mL/min/kg] | CLint scaled at 1 μM [2] [mL/min/kg] | half-life at 1 μM [2] [h] | Human Clhep predicted (human hepatocytes) [mL/min/kg] | AUC ([3]; oral dosing at 10 mg/kg) [ng·h/mL] | Cmax ([3]; oral dosing at 10 mg/kg) [ng/mL] | half-life ([3]; oral dosing at 10 mg/kg) [h] | bioavailability ([3]; oral dosing at 10 mg/kg) [%] | AUC ([3]; oral dosing at 3 mg/kg) [ng·h/mL] | Cmax ([3]; oral dosing at 3 mg/kg) [ng/mL] | half-life ([3]; oral dosing at 3 mg/kg) [h] | bioavailability ([3]; oral dosing at 3 mg/kg) [%] | SMILES
1 | 68.7 ± 3.5 | 0.806 ± 0.041 | 30.61 ± 3.29 | 14.2 ± 0.97 | 2.83 ± 0.193 | 8.42 ± 0.92 | 500 to 2500 | 500 to 1000 | 1.5 to 2.5 | 25 to 50 | – | – | – | – | COc1cc(C(=O)O)cc2c1nc(CN1CCC(c3cccc(OCc4ccc(C#N)cc4F)n3)CC1)n2Cc1cncs1 [Compound 1, 2-((4-(6-((4-Cyano-2-fluorobenzyl)oxy)pyridin-2-yl)piperidin-1-yl)methyl)-4-methoxy-1-(thiazol-5-ylmethyl)-1H-benzo[d]imidazole-6-carboxylic acid]
2 | 27.4 ± 1.77 | 2.02 ± 0.131 | 18.31 ± 1.71 | 6.18 ± 0.7 | 0.0743 ± 0.0112 | 4.76 ± 0.68 | – | – | – | – | < 500 | < 500 | ≥ 2.5 | < 25 | COc1cc(C(=O)O)cc2c1nc(CN1CCC(c3cccc(OCc4ccc(C#N)cc4F)n3)CC1)n2C[C@@H]1CCO1 [Compound 8, (S)-2-((4-(6-((4-Cyano-2-fluorobenzyl)oxy)pyridin-2-yl)piperidin-1-yl)methyl)-4-methoxy-1-(oxetan-2-ylmethyl)-1H-benzo[d]imidazole-6-carboxylic acid]
